According to ChEMBL document CHEMBL1201862, “PubChem BioAssay data set” (2004):
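Dose response: 5 concentrations. Exposure: 48 h. Format: 96-well plates. Endpoint: linear interpolation; highest concentration if not reached. Abbreviation: GI50, concentration required for 50% inhibition of growth.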 The source made the active and inactive calls. Rule as the data show it: active = GI50 up to about 1.1 µM and inactive = higher.

Legend:
Assay in all cases: inhibition of tumour cell growth, NCI panel, 48 h
786-0 = tested on: 786-0
A549 = tested on: A549
ACHN = tested on: ACHN
BT-549 = tested on: BT-549
CAKI-1 = tested on: CAKI-1
CCRF-CEM = tested on: CCRF-CEM
COLO 205 = tested on: COLO 205
DU-145 = tested on: DU-145
EKVX = tested on: EKVX
HCC 2998 = tested on: HCC 2998
HCT-116 = tested on: HCT-116
HCT-15 = tested on: HCT-15
HL-60 = tested on: HL-60
HOP-62 = tested on: HOP-62
HOP-92 = tested on: HOP-92
HT-29 = tested on: HT-29
Hs-578T = tested on: Hs-578T
IGROV-1 = tested on: IGROV-1
K562 = tested on: K562
KM12 = tested on: KM12
LOX IMVI = tested on: LOX IMVI
M14 = tested on: M14
MCF7 = tested on: MCF7
MDA-MB-231 = tested on: MDA-MB-231
MDA-MB-435 = tested on: MDA-MB-435
MDA-N = tested on: MDA-N
MOLT-4 = tested on: MOLT-4
Malme-3M = tested on: Malme-3M
NCI-H226 = tested on: NCI-H226
NCI-H23 = tested on: NCI-H23
NCI-H460 = tested on: NCI-H460
NCI-H522 = tested on: NCI-H522
NCI/ADR-RES = tested on: NCI/ADR-RES
OVCAR-3 = tested on: OVCAR-3
OVCAR-4 = tested on: OVCAR-4
OVCAR-5 = tested on: OVCAR-5
OVCAR-8 = tested on: OVCAR-8
PC-3 = tested on: PC-3
RPMI-8226 = tested on: RPMI-8226
RXF 393 = tested on: RXF 393
SF-268 = tested on: SF-268
SF-295 = tested on: SF-295
SK-MEL-28 = tested on: SK-MEL-28
SK-MEL-2 = tested on: SK-MEL-2
SK-MEL-5 = tested on: SK-MEL-5
SK-OV-3 = tested on: SK-OV-3
SN12C = tested on: SN12C
SNB-19 = tested on: SNB-19
SNB-75 = tested on: SNB-75
SR = tested on: SR
T47D = tested on: T47D
TK-10 = tested on: TK-10
U-251 = tested on: U-251
UACC-257 = tested on: UACC-257
UACC-62 = tested on: UACC-62
UO-31 = tested on: UO-31
A498 = tested on: A498
SF-539 = tested on: SF-539
SW-620 = tested on: SW-620

`COc1ccc2c(c1O)[C@@]13C=C(O)C(=O)C=C1[C@@H](C2)N(C)CC3` was tested, and the GI50 (786-0) was 75 µM (inactive), the GI50 (A549) was > 100 µM (inactive) and the GI50 (ACHN) was 43.6 µM (inactive). The GI50 (BT-549) was > 100 µM (inactive), the GI50 (CAKI-1) was 88.5 µM (inactive) and the GI50 (CCRF-CEM) was 43.8 µM (inactive). The GI50 (COLO 205) was > 100 µM (inactive), the GI50 (DU-145) was 56.9 µM (inactive) and the GI50 (EKVX) was > 100 µM (inactive). For the same compound, the GI50 (HCC 2998) was > 100 µM (inactive), the GI50 (HCT-116) was 34.1 µM (inactive) and the GI50 (HCT-15) was 68.7 µM. The GI50 (HL-60) was 46.1 µM (inactive), the GI50 (HOP-62) was 49.4 µM (inactive) and the GI50 (HOP-92) was 53.2 µM (inactive). For the same compound, the GI50 (HT-29) was 31.6 µM (inactive), the GI50 (Hs-578T) was 59.3 µM (inactive) and the GI50 (IGROV-1) was 61.1 µM (inactive). For the same compound, the GI50 (K562) was > 100 µM (inactive), the GI50 (KM12) was 52.1 µM (inactive) and the GI50 (LOX IMVI) was 31.6 µM (inactive). The GI50 (M14) was 62.2 µM (inactive), the GI50 (MCF7) was 65.2 µM (inactive) and the GI50 (MDA-MB-231) was > 100 µM (inactive). The GI50 (MDA-MB-435) was 40.6 µM (inactive), the GI50 (MDA-N) was 47 µM (inactive) and the GI50 (MOLT-4) was 36.1 µM (inactive). The GI50 (Malme-3M) was 72.6 µM (inactive), the GI50 (NCI-H226) was 56.9 µM (inactive) and the GI50 (NCI-H23) was 57.4 µM (inactive). For the same compound, the GI50 (NCI-H460) was 63.4 µM (inactive), the GI50 (NCI-H522) was 28.8 µM (inactive) and the GI50 (NCI/ADR-RES) was 51.9 µM (inactive). For the same compound, the GI50 (OVCAR-3) was 26.9 µM (inactive), the GI50 (OVCAR-4) was 62.4 µM (inactive) and the GI50 (OVCAR-5) was > 100 µM (inactive). For the same compound, the GI50 (OVCAR-8) was 51.9 µM (inactive), the GI50 (PC-3) was 34.8 µM (inactive) and the GI50 (RPMI-8226) was > 100 µM (inactive). The GI50 (RXF 393) was 48.1 µM (inactive), the GI50 (SF-268) was 28.6 µM (inactive) and the GI50 (SF-295) was > 100 µM (inactive). For the same compound, the GI50 (SK-MEL-28) was 87.7 µM (inactive), the GI50 (SK-MEL-2) was 47.9 µM (inactive) and the GI50 (SK-MEL-5) was 60.3 µM (inactive). For the same compound, the GI50 (SK-OV-3) was > 100 µM (inactive), the GI50 (SN12C) was 50 µM (inactive) and the GI50 (SNB-19) was 63.1 µM (inactive). The GI50 (SNB-75) was 54 µM (inactive), the GI50 (SR) was 42.7 µM (inactive) and the GI50 (T47D) was 63.4 µM (inactive). For the same compound, the GI50 (TK-10) was > 100 µM (inactive), the GI50 (U-251) was 86.1 µM (inactive) and the GI50 (UACC-257) was 43 µM (inactive). For the same compound, the GI50 (UACC-62) was > 100 µM (inactive) and the GI50 (UO-31) was 51.9 µM (inactive).
For `COc1ccc2nccc(/C=C/c3ccc(N(C)C)cc3)c2c1`, the GI50 (786-0) was > 10 µM (inactive), the GI50 (A498) was > 10 µM (inactive) and the GI50 (A549) was > 10 µM (inactive). For the same compound, the GI50 (ACHN) was > 10 µM (inactive), the GI50 (BT-549) was > 10 µM (inactive) and the GI50 (CAKI-1) was > 10 µM (inactive). For the same compound, the GI50 (CCRF-CEM) was 5.66 µM (inactive), the GI50 (COLO 205) was > 10 µM (inactive) and the GI50 (DU-145) was > 10 µM (inactive). For the same compound, the GI50 (EKVX) was > 10 µM (inactive), the GI50 (HCC 2998) was > 10 µM (inactive) and the GI50 (HCT-116) was 8.59 µM (inactive). The GI50 (HCT-15) was greater than 10 µM, the GI50 (HL-60) was > 10 µM (inactive) and the GI50 (HOP-62) was > 10 µM (inactive). The GI50 (HOP-92) was > 10 µM (inactive), the GI50 (HT-29) was > 10 µM (inactive) and the GI50 (Hs-578T) was > 10 µM (inactive). The GI50 (IGROV-1) was > 10 µM (inactive), the GI50 (K562) was 6.41 µM (inactive) and the GI50 (KM12) was > 10 µM (inactive). The GI50 (LOX IMVI) was > 10 µM (inactive), the GI50 (M14) was > 10 µM (inactive) and the GI50 (MCF7) was > 10 µM (inactive). For the same compound, the GI50 (MDA-MB-231) was > 10 µM (inactive), the GI50 (MDA-MB-435) was 2.31 µM (inactive) and the GI50 (MDA-N) was 3.02 µM (inactive). The GI50 (MOLT-4) was 8.18 µM (inactive), the GI50 (Malme-3M) was > 10 µM (inactive) and the GI50 (NCI-H226) was > 10 µM (inactive). For the same compound, the GI50 (NCI-H23) was > 10 µM (inactive), the GI50 (NCI-H460) was > 10 µM (inactive) and the GI50 (NCI-H522) was > 10 µM (inactive). For the same compound, the GI50 (NCI/ADR-RES) was > 10 µM (inactive), the GI50 (OVCAR-3) was > 10 µM (inactive) and the GI50 (OVCAR-4) was > 10 µM (inactive). The GI50 (OVCAR-5) was > 10 µM (inactive), the GI50 (OVCAR-8) was > 10 µM (inactive) and the GI50 (PC-3) was > 10 µM (inactive). For the same compound, the GI50 (RPMI-8226) was > 10 µM (inactive), the GI50 (RXF 393) was > 10 µM (inactive) and the GI50 (SF-268) was > 10 µM (inactive). For the same compound, the GI50 (SF-295) was > 10 µM (inactive), the GI50 (SF-539) was > 10 µM (inactive) and the GI50 (SK-MEL-28) was > 10 µM (inactive). For the same compound, the GI50 (SK-MEL-2) was > 10 µM (inactive), the GI50 (SK-MEL-5) was > 10 µM (inactive) and the GI50 (SK-OV-3) was > 10 µM (inactive). The GI50 (SN12C) was > 10 µM (inactive), the GI50 (SNB-19) was > 10 µM (inactive) and the GI50 (SNB-75) was 6.73 µM (inactive). For the same compound, the GI50 (SW-620) was > 10 µM (inactive), the GI50 (T47D) was > 10 µM (inactive) and the GI50 (TK-10) was > 10 µM (inactive). The GI50 (U-251) was > 10 µM (inactive), the GI50 (UACC-257) was > 10 µM (inactive) and the GI50 (UACC-62) was > 10 µM (inactive). The GI50 (UO-31) was > 10 µM (inactive).
